Data taken from patent US12077503B2, “Substituted cyclic amides and their use as herbicides” (FMC CORPORATION, priority 2015, dated 2024).

Columns and labels:
Type in all cases: in vivo
[1] = tested on: pigweed (Amaranthus retroflexus); assay: Test A preemergence; conditions: Amaranthus retroflexus, pre-emergence, 240 h, Preemergence; for pest or weed control at 31 g/ha: 31 g ai/ha, 0 to 100 scale where 0 is no effect and 100 is complete control, read-out: Pigweed plant response rating; for pest or weed control at 125 g/ha: 125 g ai/ha, 0 to 100 scale (0 no effect, 100 complete control), read-out: Plant response rating, Pigweed
[2] = tested on: giant foxtail (Setaria faberii); assay: Test A preemergence; conditions: Setaria faberi, pre-emergence, 240 h, Preemergence; for pest or weed control at 31 g/ha: 31 g ai/ha, 0 to 100 scale where 0 is no effect and 100 is complete control, read-out: Foxtail, Giant plant response rating; for pest or weed control at 125 g/ha: 125 g ai/ha, 0 to 100 scale (0 no effect, 100 complete control), read-out: Plant response rating, Foxtail, Giant
Procedure, shortened: (§1)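 Treatment is preemergence as a directed soil spray after planting, or postemergence at the one- to two-leaf stage, with test chemical in a non-phytotoxic solvent mixture plus surfactant. Plants stay in the greenhouse about 10 d before visual injury scoring on a 0 to 100 scale versus untreated controls.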

Kochia (Kochia scoparia) [3] = assay: Test A preemergence; conditions: Bassia scoparia, pre-emergence, 240 h, Preemergence; for pest or weed control at 31 g/ha: 31 g ai/ha, 0 to 100 scale where 0 is no effect and 100 is complete control, read-out: Kochia plant response rating; for pest or weed control at 125 g/ha: 125 g ai/ha, 0 to 100 scale (0 no effect, 100 complete control), read-out: Plant response rating, Kochia
Procedure, shortened: as §1

[4] = tested on: ryegrass, Italian (Italian ryegrass, Lolium multiflorum); assay: Test A preemergence; conditions: Lolium multiflorum, pre-emergence, 240 h, Preemergence; for pest or weed control at 31 g/ha: 31 g ai/ha, 0 to 100 scale where 0 is no effect and 100 is complete control, read-out: Ryegrass, Italian plant response rating; for pest or weed control at 125 g/ha: 125 g ai/ha, 0 to 100 scale (0 no effect, 100 complete control), read-out: Plant response rating, Ryegrass, Italian
Procedure, shortened: as §1

[5] = tested on: ragweed (common ragweed, Ambrosia elatior); assay: Test A preemergence; conditions: Ambrosia artemisiifolia, pre-emergence, 240 h, Preemergence; for pest or weed control at 31 g/ha: 31 g ai/ha, 0 to 100 scale where 0 is no effect and 100 is complete control, read-out: Ragweed plant response rating; for pest or weed control at 125 g/ha: 125 g ai/ha, 0 to 100 scale (0 no effect, 100 complete control), read-out: Plant response rating, Ragweed
Procedure, shortened: as §1

[6] = tested on: barnyardgrass (Echinochloa crus-galli); assay: Test A preemergence; conditions: Echinochloa crus-galli, pre-emergence, 240 h, Preemergence; for pest or weed control at 31 g/ha: 31 g ai/ha, 0 to 100 scale where 0 is no effect and 100 is complete control, read-out: Barnyardgrass plant response rating; for pest or weed control at 125 g/ha: 125 g ai/ha, 0 to 100 scale (0 no effect, 100 complete control), read-out: Plant response rating, Barnyardgrass
Procedure, shortened: as §1

[7] = tested on: pigweed (Amaranthus retroflexus); assay: Test A postemergence; conditions: Amaranthus retroflexus, post-emergence, 240 h, Postemergence, read-out: Pigweed plant response rating (0 to 100 scale); for pest or weed control at 125 g/ha: 125 g ai/ha, visual rating about 10 d after treatment; for pest or weed control at 31 g/ha: 31 g ai/ha, 0 is no effect, 100 is complete control
Procedure, shortened: as §1

corn (Zea mays) = assay: Test A postemergence; conditions: Zea mays, post-emergence, 240 h, Postemergence, read-out: Corn plant response rating (0 to 100 scale); for plant injury at 125 g/ha: 125 g ai/ha, visual rating about 10 d after treatment; for plant injury at 31 g/ha: 31 g ai/ha, 0 is no effect, 100 is complete control
Procedure, shortened: as §1

[8] = tested on: wheat (Triticum aestivum); assay: Test A postemergence; conditions: Triticum aestivum, post-emergence, 240 h, Postemergence, read-out: Wheat plant response rating (0 to 100 scale); for plant injury at 125 g/ha: 125 g ai/ha, visual rating about 10 d after treatment; for plant injury at 31 g/ha: 31 g ai/ha, 0 is no effect, 100 is complete control
Procedure, shortened: as §1

[9] = tested on: giant foxtail (Setaria faberii); assay: Test A postemergence; conditions: Setaria faberi, post-emergence, 240 h, Postemergence, read-out: Foxtail, Giant plant response rating (0 to 100 scale); for pest or weed control at 125 g/ha: 125 g ai/ha, visual rating about 10 d after treatment; for pest or weed control at 31 g/ha: 31 g ai/ha, 0 is no effect, 100 is complete control
Procedure, shortened: as §1

Kochia (Kochia scoparia) [10] = assay: Test A postemergence; conditions: Bassia scoparia, post-emergence, 240 h, Postemergence, read-out: Kochia plant response rating (0 to 100 scale); for pest or weed control at 125 g/ha: 125 g ai/ha, visual rating about 10 d after treatment; for pest or weed control at 31 g/ha: 31 g ai/ha, 0 is no effect, 100 is complete control
Procedure, shortened: as §1

[11] = tested on: Galium (catchweed bedstraw, Galium aparine); assay: Test A postemergence; conditions: Galium, post-emergence, 240 h, Postemergence, read-out: Galium plant response rating (0 to 100 scale); for pest or weed control at 125 g/ha: 125 g ai/ha, visual rating about 10 d after treatment; for pest or weed control at 31 g/ha: 31 g ai/ha, 0 is no effect, 100 is complete control
Procedure, shortened: as §1

[12] = tested on: ryegrass, Italian (Italian ryegrass, Lolium multiflorum); assay: Test A postemergence; conditions: Lolium multiflorum, post-emergence, 240 h, Postemergence, read-out: Ryegrass, Italian plant response rating (0 to 100 scale); for pest or weed control at 125 g/ha: 125 g ai/ha, visual rating about 10 d after treatment; for pest or weed control at 31 g/ha: 31 g ai/ha, 0 is no effect, 100 is complete control
Procedure, shortened: as §1

[13] = tested on: ragweed (common ragweed, Ambrosia elatior); assay: Test A postemergence; conditions: Ambrosia artemisiifolia, post-emergence, 240 h, Postemergence, read-out: Ragweed plant response rating (0 to 100 scale); for pest or weed control at 125 g/ha: 125 g ai/ha, visual rating about 10 d after treatment; for pest or weed control at 31 g/ha: 31 g ai/ha, 0 is no effect, 100 is complete control
Procedure, shortened: as §1

[14] = tested on: barnyardgrass (Echinochloa crus-galli); assay: Test A postemergence; conditions: Echinochloa crus-galli, post-emergence, 240 h, Postemergence; for pest or weed control at 125 g/ha: 125 g ai/ha, visual rating about 10 d after treatment, read-out: Barnyardgrass plant response rating (0 to 100 scale, 0 no effect, 100 complete control); for pest or weed control at 31 g/ha: 31 g ai/ha, 0 is no effect, 100 is complete control, read-out: Barnyardgrass plant response rating (0 to 100 scale)
Procedure, shortened: as §1

[15] = tested on: blackgrass (Alopecurus myosuroides); assay: Test A postemergence; conditions: Alopecurus myosuroides, post-emergence, 240 h, Postemergence, read-out: Blackgrass plant response rating (0 to 100 scale); for pest or weed control at 125 g/ha: 125 g ai/ha, visual rating about 10 d after treatment; for pest or weed control at 31 g/ha: 31 g ai/ha, 0 is no effect, 100 is complete control
Procedure, shortened: as §1

[16] = tested on: sedge, umbrella (small-flower umbrella sedge, Cyperus difformis); assay: Test B flooded paddy test; conditions: Cyperus difformis, 360 h, Flood, 250 g ai/ha; visually evaluated after 13 to 15 d; read-out: Plant response rating, Sedge, Umbrella (0 to 100 scale where 0 is no effect and 100 is complete control)
Procedure, shortened: (§2)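 Rating scale 0–100 (visual, vs untreated controls) after a 13–15 d greenhouse period; application to the flood layer, 3 cm above soil and maintained; plants at 2-leaf stage when treated.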

[17] = tested on: ducksalad (Heteranthera limosa); assay: Test B flooded paddy test; conditions: Heteranthera limosa, 360 h, Flood, 250 g ai/ha; visually evaluated after 13 to 15 d; read-out: Plant response rating, Ducksalad (0 to 100 scale where 0 is no effect and 100 is complete control)
Procedure, shortened: as §2

rice (Oryra sativa) = assay: Test B flooded paddy test; conditions: Oryza sativa, 360 h, Flood, 250 g ai/ha; visually evaluated after 13 to 15 d; read-out: Plant response rating, Rice (0 to 100 scale where 0 is no effect and 100 is complete control)
Procedure, shortened: as §2

[18] = tested on: barnyardgrass (Echinochloa crus-galli); assay: Test B flooded paddy test; conditions: Echinochloa crus-galli, 360 h, Flood, 250 g ai/ha; visually evaluated after 13 to 15 d; read-out: Plant response rating, Barnyardgrass (0 to 100 scale where 0 is no effect and 100 is complete control)
Procedure, shortened: as §2

CN1C[C@H](c2ccc(C(F)(F)F)cc2)[C@@H](C(=O)Nc2ccc(F)nc2F)C1=O [Compound 1347]
pest or weed control at 31 g/ha [1]: 90%
pest or weed control at 125 g/ha [1]: 100%
pest or weed control at 31 g/ha [2]: 100%
pest or weed control at 125 g/ha [2]: 100%
pest or weed control at 31 g/ha (Kochia (Kochia scoparia) [3]): 90%
pest or weed control at 125 g/ha (Kochia (Kochia scoparia) [3]): 90%
pest or weed control at 31 g/ha [4]: 0%
pest or weed control at 125 g/ha [4]: 30%
pest or weed control at 31 g/ha [5]: 30%
pest or weed control at 125 g/ha [5]: 90%
pest or weed control at 31 g/ha [6]: 80%
pest or weed control at 125 g/ha [6]: 100%
pest or weed control at 125 g/ha [7]: 90%
pest or weed control at 31 g/ha [7]: 50%
plant injury at 125 g/ha (corn (Zea mays)): 30%
plant injury at 31 g/ha (corn (Zea mays)): 30%
plant injury at 125 g/ha [8]: 30%
plant injury at 31 g/ha [8]: 20%
pest or weed control at 125 g/ha [9]: 90%
pest or weed control at 31 g/ha [9]: 70%
pest or weed control at 125 g/ha (Kochia (Kochia scoparia) [10]): 80%
pest or weed control at 31 g/ha (Kochia (Kochia scoparia) [10]): 60%
pest or weed control at 125 g/ha [11]: 70%
pest or weed control at 31 g/ha [11]: 70%
pest or weed control at 125 g/ha [12]: 40%
pest or weed control at 31 g/ha [12]: 0%
pest or weed control at 125 g/ha [13]: 70%
pest or weed control at 31 g/ha [13]: 40%
pest or weed control at 125 g/ha [14]: 90%
pest or weed control at 31 g/ha [14]: 70%
pest or weed control at 125 g/ha [15]: 60%
pest or weed control at 31 g/ha [15]: 30%
pest or weed control at 250 g/ha [16]: 0%
pest or weed control at 250 g/ha [17]: 98%
pest or weed control at 250 g/ha (rice (Oryra sativa)): 0%
pest or weed control at 250 g/ha [18]: 90%

Cc1cccc([C@H]2CN(C)C(=O)[C@@H]2C(=O)Nc2ccc(F)nc2F)c1 [Compound 1349]
pest or weed control at 31 g/ha [1]: 0%
pest or weed control at 125 g/ha [1]: 0%
pest or weed control at 31 g/ha [2]: 100%
pest or weed control at 125 g/ha [2]: 100%
pest or weed control at 31 g/ha (Kochia (Kochia scoparia) [3]): 0%
pest or weed control at 125 g/ha (Kochia (Kochia scoparia) [3]): 20%
pest or weed control at 31 g/ha [4]: 0%
pest or weed control at 125 g/ha [4]: 0%
pest or weed control at 31 g/ha [5]: 0%
pest or weed control at 125 g/ha [5]: 0%
pest or weed control at 31 g/ha [6]: 20%
pest or weed control at 125 g/ha [6]: 100%
pest or weed control at 125 g/ha [7]: 0%
pest or weed control at 31 g/ha [7]: 0%
plant injury at 125 g/ha (corn (Zea mays)): 0%
plant injury at 31 g/ha (corn (Zea mays)): 0%
plant injury at 125 g/ha [8]: 0%
plant injury at 31 g/ha [8]: 0%
pest or weed control at 125 g/ha [9]: 80%
pest or weed control at 31 g/ha [9]: 60%
pest or weed control at 125 g/ha (Kochia (Kochia scoparia) [10]): 30%
pest or weed control at 31 g/ha (Kochia (Kochia scoparia) [10]): 0%
pest or weed control at 125 g/ha [11]: 60%
pest or weed control at 31 g/ha [11]: 30%
pest or weed control at 125 g/ha [12]: 20%
pest or weed control at 31 g/ha [12]: 0%
pest or weed control at 125 g/ha [13]: 0%
pest or weed control at 31 g/ha [13]: 0%
pest or weed control at 125 g/ha [14]: 90%
pest or weed control at 31 g/ha [14]: 70%
pest or weed control at 125 g/ha [15]: 20%
pest or weed control at 31 g/ha [15]: 0%
pest or weed control at 250 g/ha [16]: 0%
pest or weed control at 250 g/ha [17]: 95%
pest or weed control at 250 g/ha (rice (Oryra sativa)): 0%
pest or weed control at 250 g/ha [18]: 90%
